Biological target: T1, human MRGPRX2 (Homo sapiens, UniProt Q96LB1)
T1 construct: expressed in transfected cells
T1 sequence (Q96LB1 1-330): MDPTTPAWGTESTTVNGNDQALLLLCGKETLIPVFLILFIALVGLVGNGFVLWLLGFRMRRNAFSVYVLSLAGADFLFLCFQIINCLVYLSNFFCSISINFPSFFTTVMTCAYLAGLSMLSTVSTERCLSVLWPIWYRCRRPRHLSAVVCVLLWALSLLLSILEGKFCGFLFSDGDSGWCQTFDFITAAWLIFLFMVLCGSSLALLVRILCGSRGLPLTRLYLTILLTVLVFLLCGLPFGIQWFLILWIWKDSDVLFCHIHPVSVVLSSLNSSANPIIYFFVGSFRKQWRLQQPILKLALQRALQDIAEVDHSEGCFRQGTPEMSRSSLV
Assay: MRGPRX2 antagonist activity, IP-One HTRF assay in CHO cells expressing human MRGPRX2 versus Cortistatin-14
Type: cell-based
Conditions: CHO cells stably expressing human MRGPRX2; versus 0.3 uM Cortistatin-14 agonist; IP-1 HTRF readout; read-out: MRGPR2 Antagonist Activity
Description: CHO cells stably transfected to express human MRGPRX2 were maintained in an incubator at 37° C. with 5% CO2 and grown in F12 (HAM) media with 10% fetal bovine serum (FBS), 1% Glutamax, 1% penicillin/streptomycin, 800 μg/mL Geneticin (G418), and 300 μg/mL Hygromycin B. Cells were plated in a 384-well assay plate at 20,000 cells per well in 12 μL of Opti-MEM and kept in an incubator overnight. On the day of the assay, compounds solubilized at 10 mM in DMSO were added as a 10-point curve (30 uM final top concentration with 1:3 serial dilutions) using a Tecan D300E digital dispenser. Agonists were diluted in assay buffer (final concentrations of 5.7 mM Tris-HCl, 43 mM NaCl, 50 mM LiCI, pH=8) and 2 μL of the agonist Cortistatin-14 (CPC Scientific, catalog CORT-002) are added to each well. Final concentrations of agonists were […] Cortistatin-14. Final concentrations of DMSO were kept consistent across the plate. Plates were incubated in the dark for 1 hr at 37° C. and then for 1 hr at room temperature. IP-1 standards and HTRF detection reagents were added according to the IP-One—Gq Kit purchased from Cisbio (part number 621PAPEJ) and incubated in the dark for 1 hr at room temperature. The plate was read on a Molecular Devices SpectraMax iD5 plate reader. The HTRF ratio was calculated from the raw data and graphed using GraphPad Prism to calculate an IC50 value for each compound.
The activity ranges are denoted as follows: “+++++” denotes antagonist activity <100 nM; “++++” denotes antagonist activity between 100 and 500 nM; “+++” denotes activity between 501 and 1000 nM; “++” denotes activity between 1001 and 2500 nM; and “+” denotes activity >2500 nM.

SMILES | IC50
CN(c1ccc(C(=O)N[C@H]2CC[C@@H](Nc3cc(C(F)(F)F)nc(C(F)(F)F)c3)CC2)cc1)S(C)(=O)=O [4-23] | 100 to 500 nM
Cc1cc(C)n(-c2ccc(C(=O)N[C@H]3CC[C@@H](Nc4cc(C(F)(F)F)nc(C(F)(F)F)c4)CC3)cc2)n1 [4-24] | 501 to 1000 nM
O=C(N[C@H]1CC[C@@H](Nc2cc(C(F)(F)F)nc(C(F)(F)F)c2)CC1)c1ccc(-n2ccnc2)cc1 [4-25] | 100 to 500 nM
CN1CCCc2cccc(C(=O)N[C@H]3CC[C@@H](Nc4cc(C(F)(F)F)nc(C(F)(F)F)c4)CC3)c21 [4-26] | 1000 to 2500 nM
Nc1nc(C(=O)N[C@H]2CC[C@@H](Nc3cc(C(F)(F)F)nc(C(F)(F)F)c3)CC2)cs1 [4-27] | 100 to 500 nM
O=C(N[C@H]1CC[C@@H](Nc2cc(C(F)(F)F)nc(C(F)(F)F)c2)CC1)c1cccc(O)c1 [4-28] | 100 to 500 nM
CN(C)C(=O)N[C@H]1CC[C@@H](Nc2cc(C(F)(F)F)nc(C(F)(F)F)c2)CC1 [4-29] | 1000 to 2500 nM
O=C(N[C@H]1CC[C@@H](Nc2cc(C(F)(F)F)nc(C(F)(F)F)c2)CC1)c1ccc(-n2cnnn2)cc1 [4-30] | 100 to 500 nM
O=C(N[C@H]1CC[C@@H](Nc2cc(C(F)(F)F)nc(C(F)(F)F)c2)CC1)c1ccc(-n2cccn2)cc1 [4-31] | 100 to 500 nM
O=C(N[C@H]1CC[C@@H](Nc2cc(C(F)(F)F)nc(C(F)(F)F)c2)CC1)c1ccc(Cl)cc1Cl [4-32] | 501 to 1000 nM
CC1=NN(c2ccc(C(=O)N[C@H]3CC[C@@H](Nc4cc(C(F)(F)F)nc(C(F)(F)F)c4)CC3)cc2)C(=O)C1 [4-33] | 100 to 500 nM
CN1CCc2c(cccc2C(=O)N[C@H]2CC[C@@H](Nc3cc(C(F)(F)F)nc(C(F)(F)F)c3)CC2)C1 [4-34] | 1000 to 2500 nM
O=C(N[C@H]1CC[C@@H](Nc2cc(C(F)(F)F)nc(C(F)(F)F)c2)CC1)c1nc2ccccc2[nH]1 [4-35] | 1000 to 2500 nM
CN1CCN(C(=O)N[C@H]2CC[C@@H](Nc3cc(C(F)(F)F)nc(C(F)(F)F)c3)CC2)CC1 [4-36] | 1000 to 2500 nM
O=C(N[C@H]1CC[C@@H](Nc2cc(C(F)(F)F)nc(C(F)(F)F)c2)CC1)c1cc2c([nH]1)CCCC2 [4-37] | 501 to 1000 nM
O=C(N[C@H]1CC[C@@H](Nc2cc(C(F)(F)F)nc(C(F)(F)F)c2)CC1)c1ccc(N2CCS(=O)(=O)CC2)cc1 [4-38] | 100 to 500 nM
O=C(N[C@H]1CC[C@@H](Nc2cc(C(F)(F)F)nc(C(F)(F)F)c2)CC1)c1ccc2nccn2c1 [4-39] | 100 to 500 nM
CN1CCC(C(=O)N[C@H]2CC[C@@H](Nc3cc(C(F)(F)F)nc(C(F)(F)F)c3)CC2)C1 (some centres unmarked) [4-40] | 1000 to 2500 nM
O=C(N[C@H]1CC[C@@H](Nc2cc(C(F)(F)F)nc(C(F)(F)F)c2)CC1)c1ccc(N2CCCC2)cc1 [4-41] | 100 to 500 nM
O=C(N[C@H]1CC[C@@H](Nc2cc(C(F)(F)F)nc(C(F)(F)F)c2)CC1)c1ccc2c(c1)CCCC2 [4-42] | 501 to 1000 nM
COc1ccc(C(=O)N[C@H]2CC[C@@H](Nc3cc(C(F)F)nc(C(F)(F)F)c3)CC2)cc1 [4-43] | 100 to 500 nM
N#Cc1ccc(N[C@H]2CC[C@@H](NC(=O)c3cn[nH]c3C(F)(F)F)CC2)cc1C(F)(F)F [4-44] | < 100 nM
N#Cc1ccc(N[C@H]2CC[C@@H](NC(=O)c3cn[nH]c3Cl)CC2)cc1C(F)(F)F [4-45] | < 100 nM
N#Cc1ccc(N[C@H]2CC[C@@H](NC(=O)c3cn[nH]c3C3CC3)CC2)cc1C(F)(F)F [4-46] | < 100 nM
CNc1ccc(C(=O)N[C@H]2CC[C@@H](Nc3ccc(C#N)c(C(F)(F)F)c3)CC2)cc1 [4-47] | < 100 nM
CC(=O)Nc1ccc(C(=O)N[C@H]2CC[C@@H](Nc3ccc(C#N)c(C(F)(F)F)c3)CC2)cc1 [4-48] | < 100 nM
N#Cc1ccc(N[C@H]2CC[C@@H](NC(=O)c3ccc4cn[nH]c4c3)CC2)cc1C(F)(F)F [4-49] | < 100 nM

SMILES | IC50
N#Cc1ccc(N[C@H]2CC[C@@H](NC(=O)c3ccc4[nH]ncc4c3)CC2)cc1C(F)(F)F [4-50] | < 100 nM
Cc1cn(-c2ccc(C(=O)N[C@H]3CC[C@@H](Nc4ccc(C#N)c(C(F)(F)F)c4)CC3)cc2)cn1 [4-51] | < 100 nM
N#Cc1ccc(N[C@H]2CC[C@@H](NC(=O)c3ccc(NCC(F)F)cc3)CC2)cc1C(F)(F)F [4-53] | < 100 nM
CN(CC(F)F)c1ccc(C(=O)N[C@H]2CC[C@@H](Nc3ccc(C#N)c(C(F)(F)F)c3)CC2)cc1 [4-54] | < 100 nM
N#Cc1ccc(N[C@H]2CC[C@@H](NC(=O)c3cn[nH]c3C#N)CC2)cc1C(F)(F)F [4-56] | < 100 nM
N#Cc1ccc(N[C@H]2CC[C@@H](NC(=O)c3c[nH]c4ncccc34)CC2)cc1C(F)(F)F [4-57] | < 100 nM
N#Cc1ccc(N[C@H]2CC[C@@H](NC(=O)c3ccnc4cn[nH]c34)CC2)cc1C(F)(F)F [4-58] | < 100 nM
N#Cc1ccc(N[C@H]2CC[C@@H](NC(=O)c3ccnc4[nH]ncc34)CC2)cc1C(F)(F)F [4-59] | < 100 nM
Cc1cc2c(C(=O)N[C@H]3CC[C@@H](Nc4ccc(C#N)c(C(F)(F)F)c4)CC3)ccnc2[nH]1 [4-60] | < 100 nM
Cn1ccc2c(C(=O)N[C@H]3CC[C@@H](Nc4ccc(C#N)c(C(F)(F)F)c4)CC3)ccnc21 [4-61] | < 100 nM
Cc1cccc2[nH]cc(C(=O)N[C@H]3CC[C@@H](Nc4ccc(C#N)c(C(F)(F)F)c4)CC3)c12 [4-62] | < 100 nM
N#Cc1ccc(N[C@H]2CC[C@@H](NC(=O)c3c[nH]c4ccncc34)CC2)cc1C(F)(F)F [4-63] | < 100 nM
N#Cc1ccc(N[C@H]2CC[C@@H](NC(=O)c3c[nH]c4cnccc34)CC2)cc1C(F)(F)F [4-64] | < 100 nM
CNC(=O)c1ccc(C(=O)N[C@H]2CC[C@@H](Nc3ccc(C#N)c(C(F)(F)F)c3)CC2)cc1 [4-65] | < 100 nM
CNc1cc(C(=O)N[C@H]2CC[C@@H](Nc3ccc(C#N)c(C(F)(F)F)c3)CC2)ccn1 [4-66] | < 100 nM
Cc1cc(C(=O)N[C@H]2CC[C@@H](Nc3cc(C)c(C#N)c(C(F)(F)F)c3)CC2)cc(C)n1 [5-1] | < 100 nM
Cc1cc(N[C@H]2CC[C@@H](NC(=O)c3ccnc(NC(C)C)c3)CC2)cc(C(F)(F)F)c1C#N [5-2] | < 100 nM
CNc1ccc(C(=O)N[C@H]2CC[C@@H](Nc3cc(C)c(C#N)c(C(F)(F)F)c3)CC2)cc1 [5-3] | < 100 nM
CNc1cc(C(=O)N[C@H]2CC[C@@H](Nc3cc(C)c(C#N)c(C(F)(F)F)c3)CC2)ccn1 [5-4] | < 100 nM
Cc1cc(N[C@H]2CC[C@@H](NC(=O)c3cnn(CC(F)(F)F)c3)CC2)cc(C(F)(F)F)c1C#N [5-5] | < 100 nM
CCn1nccc1C(=O)N[C@H]1CC[C@@H](Nc2cc(C)c(C#N)c(C(F)(F)F)c2)CC1 [5-6] | < 100 nM
Cc1cc(N[C@H]2CC[C@@H](NC(=O)c3ccc(N(C)CC(F)F)cc3)CC2)cc(C(F)(F)F)c1C#N [5-7] | < 100 nM
Cc1cc(N[C@H]2CC[C@@H](NC(=O)c3ccc(NCC(F)F)cc3)CC2)cc(C(F)(F)F)c1C#N [5-8] | < 100 nM
Cc1cc(N[C@H]2CC[C@@H](NC(=O)c3ccc4cncn4c3)CC2)cc(C(F)(F)F)c1C#N [5-9] | < 100 nM
Cc1cc(N[C@H]2CC[C@@H](NC(=O)c3cn(CC(F)F)nc3C)CC2)cc(C(F)(F)F)c1C#N [5-10] | < 100 nM
O=C(N[C@@H]1CCC[C@H](Nc2cc(C(F)(F)F)nc(C(F)(F)F)c2)C1)c1ccccc1 [Example 2, N-((1R,3S)-3-((2,6-bis(trifluoromethyl)pyridin-4-yl)amino)cyclohexyl)benzamide] | > 2500 nM

Reference: patent publication US11952346B2, “Modulators of mas-related G-protein receptor X2 and related products and methods” (Escient Pharmaceuticals, Inc., priority 2020, dated 2024)
